Tests used:
[1] = tested on: human intestinal cancer cell line HCT116 (KRAS G13D mutation); experiment: Growth inhibition in combination with MEK1/2 inhibitor Trametinib, HCT116 (KRAS G13D mutation); assay type: cell-based; conditions: 5 days
Experimental: Test Example 5 Synergistic Inhibition Effect of the Present Compounds in Combination with MEK1/2 Inhibitor on the Growth of RAS Mutant Tumor Cells In Vitro
The cell culture, drug treatment and MTT assay of human intestinal cancer cell line HCT116 (KRAS G13D mutation) and human non-small cell lung cancer cell line NCI-H1299 (NRAS Q61K mutation) were performed according to the method of test example 1. Cells were treated with the MEK1/2 inhibitor Trametinib at 25 nM, 2.5 nM and 0.25 nM alone or in combination with compound 66 or 125 of the present invention (5 days).

[2] = molecular target: T1, protein kinases (Homo sapiens, UniProt P00519, Y253F); experiment: KINOMEscan in vitro binding to 468 labeled protein kinases; conditions: ABL1(Y253F)-phosphorylated, read-out: Test compound/solvent control (%)
T1 construct: purchased Discovery X company (USA), KINOMEscan screening platform
Experimental: (§1) Test Example 6 Determination of Binding Affinity of the Present Compounds on Protein Kinases In Vitro
(§2) KINOMEscan screening platform of Discovery X company (USA) was used to identify the binding targets of the present compounds to protein kinases. Compound 66 of the present invention was dissolved in DMSO (Sigma Aldrich) at concentrations of 1000 nM, 10 nM and 1 nM, and then was subjected to in vitro binding reaction with 468 labeled protein kinases. Two samples were taken in parallel for each assay sample.
(§3) The lower the percentage of the test compound to the solvent control, the stronger the binding affinity of the test compound to the protein kinase in vitro.

[3] = molecular target: T2, protein kinases (Homo sapiens, UniProt P00533, L861Q); experiment: as above; conditions: EGFR(L861Q)
T2 construct: purchased Discovery X company (USA), KINOMEscan screening platform
Experimental: as §1, §2, §3

[4] = tested on: NCI-H1581; experiment: NCI-H1581 subcutaneous transplantation tumor model, tumor growth inhibition in vivo; design: species or system Bab/c immunodeficient mice; conditions: 17th day after the administration
From the text: (§4) Test Example 7 Inhibition of Tumour Cell Growth In Vivo
(§5) In order to establish subcutaneous transplantation tumor models of human non-small cell lung cancer and endometrial adenocarcinoma, Bab/c immunodeficient mice were subcutaneously inoculated with NCI-H1581 (ATCC) and AN3-CA (ATCC) cells, respectively.
Experimental animals: 6-week female Bab/c immunodeficient mice (about 20 g in weight). The mice were purchased from Shanghai Sippr-BK Experimental Animal Co., Ltd., raised in Animal Center of Shanghai University of Traditional Chinese Medicine, approved by Ethical Committee of Shanghai University of Traditional Chinese Medicine. The breeding environment was SPF grade.
Test samples: the present compounds 66 (purity: 99%), solid powder, stored at 4˜8° C.
Cells and animal models: NCI-H1581 cells were cultured in RPMI 1640 medium containing 10% fetal bovine serum. Log-phase NCI-H1581 cells were collected and re-suspended with PBS to 2.5×10^7 cells per ml for subcutaneous single-point inoculation of Bab/c immunodeficient mice at the right side of the back of mouse (5×10^6 cells, 0.2 ml).
When the tumor volume reached 100˜200 mm^3, the mice were randomly divided according to tumor size. The experiment was divided into solvent control group and drug administration group (compound 66 group). 6 mice in each group were administered 0.1 ml per 10 g body weight by intraperitoneal injection (i.p) once a day. The tumor was measured three times a week, and the tumor volume was calculated as: long diameter×short diameter^2/2. When the average tumor volume of the control group reached 2000 mm^3, the experiment was over and then the tumor was weighed and subjected to molecular pathology assay. Efficacy was assessed based on relative tumor growth inhibition value (TGI), and safety was assessed based on animal weight change.
Preparation of test samples: appropriate amount of compound 66 was weighed and mixed with ultrapure water; and methanesulfonic acid was added for clarification; and then 4M NaOH was added to adjust the PH to 3.8; and a final volume was made up with ultrapure water. The final concentrations were 0.5 mg/ml and 0.25 mg/ml, respectively.
T/C % refers to the relative tumor growth rate, that is, the percentage of relative tumor volume or tumor weight of the administration group and the control group at a certain time point. […]
(§6) Tumor volume data of 17 days after the start of administration were selected for statistical analysis among different groups, and independent sample T test was used to compare whether there were significant differences in relative tumor volume between the administration group and the control group. All data were analyzed using SPSS 18.0. […]

[5] = tested on: AN3-CA; experiment: AN3-CA subcutaneous transplantation tumor model, tumor growth inhibition in vivo; design: species or system Bab/c immunodeficient mice; conditions: 5 mg/kg i.p once a day, 17th day after the administration
From the text: as §4, §5
Experimental animals: 6-week female Bab/c immunodeficient mice (about 20 g in weight). The mice were purchased from Shanghai Sippr-BK Experimental Animal Co., Ltd., raised in Animal Center of Shanghai University of Traditional Chinese Medicine, approved by Ethical Committee of Shanghai University of Traditional Chinese Medicine. The breeding environment was SPF grade. […]
When the tumor volume reached 100˜200 mm^3, the mice were randomly divided according to tumor size. […] The tumor was measured three times a week, and the tumor volume was calculated as: long diameter×short diameter^2/2. […] Efficacy was assessed based on relative tumor growth inhibition value (TGI), and safety was assessed based on animal weight change. […]
as §6

T2 sequence (P00533 25-1210 L861Q): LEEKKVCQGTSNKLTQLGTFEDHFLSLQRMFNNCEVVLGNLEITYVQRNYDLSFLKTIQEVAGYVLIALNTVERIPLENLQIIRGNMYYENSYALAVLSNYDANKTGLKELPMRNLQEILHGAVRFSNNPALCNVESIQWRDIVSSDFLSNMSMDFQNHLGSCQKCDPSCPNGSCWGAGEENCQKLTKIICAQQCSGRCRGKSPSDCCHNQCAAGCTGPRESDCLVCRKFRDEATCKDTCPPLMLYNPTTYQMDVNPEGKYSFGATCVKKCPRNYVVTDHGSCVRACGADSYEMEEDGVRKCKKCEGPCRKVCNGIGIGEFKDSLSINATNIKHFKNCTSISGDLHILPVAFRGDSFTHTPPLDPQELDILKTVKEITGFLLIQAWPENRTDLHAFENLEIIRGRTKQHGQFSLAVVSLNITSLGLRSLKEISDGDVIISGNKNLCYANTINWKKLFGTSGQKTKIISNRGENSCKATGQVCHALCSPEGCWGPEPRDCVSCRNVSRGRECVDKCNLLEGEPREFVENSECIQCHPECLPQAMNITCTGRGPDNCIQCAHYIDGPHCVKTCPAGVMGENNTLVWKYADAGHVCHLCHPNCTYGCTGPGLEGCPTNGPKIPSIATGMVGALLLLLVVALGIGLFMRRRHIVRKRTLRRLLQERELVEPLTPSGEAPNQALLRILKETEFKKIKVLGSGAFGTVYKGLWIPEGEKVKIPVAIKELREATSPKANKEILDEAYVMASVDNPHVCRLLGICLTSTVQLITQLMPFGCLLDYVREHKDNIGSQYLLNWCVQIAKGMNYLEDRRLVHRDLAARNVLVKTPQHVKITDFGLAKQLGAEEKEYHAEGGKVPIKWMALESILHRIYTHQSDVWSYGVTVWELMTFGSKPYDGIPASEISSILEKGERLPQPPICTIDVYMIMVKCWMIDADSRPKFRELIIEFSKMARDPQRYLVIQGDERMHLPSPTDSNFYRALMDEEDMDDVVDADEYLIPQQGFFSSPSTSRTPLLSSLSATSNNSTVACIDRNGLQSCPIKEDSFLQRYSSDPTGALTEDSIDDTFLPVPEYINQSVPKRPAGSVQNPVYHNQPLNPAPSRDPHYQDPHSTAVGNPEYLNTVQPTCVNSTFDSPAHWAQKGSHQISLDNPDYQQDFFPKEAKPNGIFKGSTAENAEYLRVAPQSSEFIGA

COCCOc1cc2nccc(Oc3ccc(NC(=O)Nc4cc(C(C)(C)C)n[nH]4)c(Cl)c3)c2cc1NC(C)=O [Compound 66, N-[4-{4-[3-(5-tert-butyl-2H-pyrazol-3-yl)-ureido]-3-chloro-phenoxy}-7-(2-methoxy-ethoxy)-quinolin-6-yl]-acetamide]
inhibition at 0.0078 µM ([1]; Homo sapiens, HCT-116, 120 h, compound 7.8 nM alone (solvent instead of Trametinib), read-out: cell growth inhibition (percentage)): 7.67%
inhibition at 0.0156 µM ([1]; Homo sapiens, HCT-116, 120 h, compound 15.6 nM alone (solvent instead of Trametinib), read-out: cell growth inhibition (percentage)): 22%
cell growth inhibition (percentage) ([1]; compound 7.8 nM + Trametinib 0.25 nM): 62.24%
cell growth inhibition (percentage) ([1]; compound 7.8 nM + Trametinib 2.5 nM): 73.79%
cell growth inhibition (percentage) ([1]; compound 7.8 nM + Trametinib 25 nM): 80.52%
cell growth inhibition (percentage) ([1]; compound 15.6 nM + Trametinib 0.25 nM): 66.72%
cell growth inhibition (percentage) ([1]; compound 15.6 nM + Trametinib 2.5 nM): 77.07%
cell growth inhibition (percentage) ([1]; compound 15.6 nM + Trametinib 25 nM): 81.03%
remaining binding at 0.001 µM ([2]; 1 nM): 80%
remaining binding at 0.01 µM ([2]; 10 nM): 11%
remaining binding at 1 µM ([2]; 1000 nM): 0.1%
Test compound/solvent control (%) ([3]; 1 nM): 73%
Test compound/solvent control (%) ([3]; 10 nM): 9.5%
Test compound/solvent control (%) ([3]; 1000 nM): 0%
T/C (%) ([4]; 2.5 mg/kg i.p once a day): 7.91%
TGI (%) ([4]; 2.5 mg/kg i.p once a day): 92.09%
T/C (%) ([4]; 5 mg/kg i.p once a day): 1.07%
TGI (%) ([4]; 5 mg/kg i.p once a day): 98.93%
T/C (%) [5]: 1.37%
TGI (%) [5]: 98.63%
